Laboratory results reported in PMC8371902, “Phase 1 study of M2698, a p70S6K/AKT dual inhibitor, in patients with advanced cancer” (Journal of Hematology & Oncology, 2021).
Like-named read-outs stand apart in the source and are kept apart here.

Test system: patients with advanced metastatic cancer
Excerpt: In this phase 1 study, dose escalation was followed by expansion cohorts of once-daily, oral M2698 in continuous 21-day cycles. Primary objectives were to determine the maximum tolerated dose (MTD), dose-limiting toxicities (DLTs), and recommended phase 2 dose (RP2D). Secondary objectives were to assess safety and tolerability, pharmacokinetics (PK, including food effect) and antitumor activity. Pharmacodynamic biomarker assessments were exploratory. Treatment was discontinued if there was disease progression, toxicity or consent withdrawal.
In Part 1, M2698 monotherapy was investigated in a dose escalation with a food effect cohort. In Part 2, M2698 was investigated as monotherapy (expansion cohort) to further characterize safety, tolerability and pharmacokinetics, and assess antitumor activity in PAM + patients without confounding markers (exploratory).
Dose escalation analysis included all patients who experienced a DLT and those who received ≥ 80% of planned M2698 doses in cycle 1 without experiencing a DLT. Safety analysis included all patients who received ≥ 1 dose of M2698. PK analysis included all patients who received ≥ 1 dose of M2698 and had measurable plasma concentrations. Dose proportionality was tested using the power model (linear regression approach on the log -transformed scale).

NC(=O)c1cccc2c(N[C@H](CN3CCC3)c3ccc(Cl)c(C(F)(F)F)c3)ncnc12 [M2698]
M2698-related TEAE: Dysphagia (380 mg n=4): 0 | M2698-related TEAE: Energy increased (380 mg n=4): 0 | M2698-related TEAE: Erythema (380 mg n=4): 0 | M2698-related TEAE: Euphoric mood (380 mg n=4): 0 | M2698-related TEAE: Eye disorders (380 mg n=4): 0 | M2698-related TEAE: Fatigue (380 mg n=4): 0 | M2698-related TEAE: Gamma-glutamyltransferase increased (380 mg n=4): 0 | M2698-related TEAE: Gastrointestinal disorders (380 mg n=4): 2 | M2698-related TEAE: Gastrooesophageal reflux disease (380 mg n=4): 0 | M2698-related TEAE: General disorders and administration site conditions (380 mg n=4): 0 | M2698-related TEAE: Headache (380 mg n=4): 0 | M2698-related TEAE: Hyperhidrosis (380 mg n=4): 0 | M2698-related TEAE: Hypokalaemia (380 mg n=4): 0 | M2698-related TEAE: Hypomagnesaemia (380 mg n=4): 0 | M2698-related TEAE: Insomnia (380 mg n=4): 0 | M2698-related TEAE: Investigations (380 mg n=4): 1 | M2698-related TEAE: Lipase increased (380 mg n=4): 0 | M2698-related TEAE: Lymphopenia (380 mg n=4): 0 | M2698-related TEAE: Metabolism and nutrition disorders (380 mg n=4): 0 | M2698-related TEAE: Mucosal inflammation (380 mg n=4): 0 | M2698-related TEAE: Nausea (380 mg n=4): 1 | M2698-related TEAE: Nervous system disorders (380 mg n=4): 1 | M2698-related TEAE: Nightmare (380 mg n=4): 0 | M2698-related TEAE: Onychomadesis (380 mg n=4): 0 | M2698-related TEAE: Paranoia (380 mg n=4): 0 | M2698-related TEAE: Photosensitivity reaction (380 mg n=4): 0 | M2698-related TEAE: Posterior reversible encephalopathy syndrome (380 mg n=4): 1 | M2698-related TEAE: Pruritus generalised (380 mg n=4): 0 | M2698-related TEAE: Psychiatric disorders (380 mg n=4): 0 | M2698-related TEAE: Rash (380 mg n=4): 0 | M2698-related TEAE: Rash maculo-papular (380 mg n=4): 0 | M2698-related TEAE: Skin and subcutaneous tissue disorders (380 mg n=4): 0 | M2698-related TEAE: Subjects with at least one event (380 mg n=4): 3 | M2698-related TEAE: Transaminases increased (380 mg n=4): 0 | M2698-related TEAE: Tremor (380 mg n=4): 0 | M2698-related TEAE: Vision blurred (380 mg n=4): 0 | M2698-related TEAE: Vomiting (380 mg n=4): 1 | M2698-related TEAE: White blood cell count decreased (380 mg n=4): 0 | M2698-related TEAE: Abnormal dreams (Overall N=62): 6 (9.7) n (%) | M2698-related TEAE: Affect lability (Overall N=62): 1 (1.6) n (%) | M2698-related TEAE: Alanine aminotransferase increased (Overall N=62): 1 (1.6) n (%) | M2698-related TEAE: Amylase increased (Overall N=62): 1 (1.6) n (%) | M2698-related TEAE: Anaemia (Overall N=62): 2 (3.2) n (%) | M2698-related TEAE: Angina pectoris (Overall N=62): 1 (1.6) n (%) | M2698-related TEAE: Anxiety (Overall N=62): 1 (1.6) n (%) | M2698-related TEAE: Aphasia (Overall N=62): 1 (1.6) n (%) | M2698-related TEAE: Ataxia (Overall N=62): 1 (1.6) n (%) | M2698-related TEAE: Blood and lymphatic system disorders (Overall N=62): 3 (4.8) n (%) | M2698-related TEAE: Blood creatine phosphokinase increased (Overall N=62): 2 (3.2) n (%) | M2698-related TEAE: Blood creatinine increased (Overall N=62): 2 (3.2) n (%) | M2698-related TEAE: Cardiac disorders (Overall N=62): 1 (1.6) n (%) | M2698-related TEAE: Cognitive disorder (Overall N=62): 1 (1.6) n (%) | M2698-related TEAE: Constipation (Overall N=62): 3 (4.8) n (%) | M2698-related TEAE: Decreased appetite (Overall N=62): 2 (3.2) n (%) | M2698-related TEAE: Delusion (Overall N=62): 1 (1.6) n (%) | M2698-related TEAE: Depression (Overall N=62): 2 (3.2) n (%) | M2698-related TEAE: Diarrhoea (Overall N=62): 7 (11.3) n (%) | M2698-related TEAE: Diarrhoea haemorrhagic (Overall N=62): 1 (1.6) n (%) | M2698-related TEAE: Dizziness (Overall N=62): 1 (1.6) n (%) | M2698-related TEAE: Dry eye (Overall N=62): 1 (1.6) n (%) | M2698-related TEAE: Dry mouth (Overall N=62): 1 (1.6) n (%) | M2698-related TEAE: Dysgeusia (Overall N=62): 2 (3.2) n (%) | M2698-related TEAE: Dyspepsia (Overall N=62): 1 (1.6) n (%) | M2698-related TEAE: Dysphagia (Overall N=62): 1 (1.6) n (%) | M2698-related TEAE: Energy increased (Overall N=62): 1 (1.6) n (%) | M2698-related TEAE: Erythema (Overall N=62): 1 (1.6) n (%) | M2698-related TEAE: Euphoric mood (Overall N=62): 1 (1.6) n (%) | M2698-related TEAE: Eye disorders (Overall N=62): 2 (3.2) n (%) | M2698-related TEAE: Fatigue (Overall N=62): 4 (6.5) n (%) | M2698-related TEAE: Gamma-glutamyltransferase increased (Overall N=62): 2 (3.2) n (%) | M2698-related TEAE: Gastrointestinal disorders (Overall N=62): 18 (29.0) n (%) | M2698-related TEAE: Gastrooesophageal reflux disease (Overall N=62): 1 (1.6) n (%) | M2698-related TEAE: General disorders and administration site conditions (Overall N=62): 6 (9.7) n (%) | M2698-related TEAE: Headache (Overall N=62): 1 (1.6) n (%) | M2698-related TEAE: Hyperhidrosis (Overall N=62): 1 (1.6) n (%) | M2698-related TEAE: Hypokalaemia (Overall N=62): 2 (3.2) n (%) | M2698-related TEAE: Hypomagnesaemia (Overall N=62): 1 (1.6) n (%) | M2698-related TEAE: Insomnia (Overall N=62): 2 (3.2) n (%) | M2698-related TEAE: Investigations (Overall N=62): 9 (14.5) n (%) | M2698-related TEAE: Lipase increased (Overall N=62): 1 (1.6) n (%) | M2698-related TEAE: Lymphopenia (Overall N=62): 1 (1.6) n (%) | M2698-related TEAE: Metabolism and nutrition disorders (Overall N=62): 4 (6.5) n (%) | M2698-related TEAE: Mucosal inflammation (Overall N=62): 1 (1.6) n (%) | M2698-related TEAE: Nausea (Overall N=62): 12 (19.4) n (%) | M2698-related TEAE: Nervous system disorders (Overall N=62): 10 (16.1) n (%) | M2698-related TEAE: Nightmare (Overall N=62): 1 (1.6) n (%) | M2698-related TEAE: Onychomadesis (Overall N=62): 1 (1.6) n (%) | M2698-related TEAE: Paranoia (Overall N=62): 1 (1.6) n (%) | M2698-related TEAE: Photosensitivity reaction (Overall N=62): 1 (1.6) n (%) | M2698-related TEAE: Posterior reversible encephalopathy syndrome (Overall N=62): 1 (1.6) n (%) | M2698-related TEAE: Pruritus generalised (Overall N=62): 1 (1.6) n (%) | M2698-related TEAE: Psychiatric disorders (Overall N=62): 10 (16.1) n (%) | M2698-related TEAE: Rash (Overall N=62): 1 (1.6) n (%) | M2698-related TEAE: Rash maculo-papular (Overall N=62): 2 (3.2) n (%) | M2698-related TEAE: Skin and subcutaneous tissue disorders (Overall N=62): 8 (12.9) n (%) | M2698-related TEAE: Subjects with at least one event (Overall N=62): 34 (54.8) n (%) | M2698-related TEAE: Transaminases increased (Overall N=62): 1 (1.6) n (%) | M2698-related TEAE: Tremor (Overall N=62): 4 (6.5) n (%) | M2698-related TEAE: Vision blurred (Overall N=62): 1 (1.6) n (%)
